In article PMC6934184, “Selective DNA-PKcs inhibition extends the therapeutic index of localized radiotherapy and chemotherapy” (The Journal of Clinical Investigation, 2019):

Biological target: T1, AMPK (A1/B2/G1) (Homo sapiens, UniProt Q13131)
T1 construct: purchased Thermo Fisher Scientific (Life Technologies) SelectScreen
Assay: SelectScreen LanthaScreen
Assay type: binding
Conditions: read-out: % displacement
How it was run: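 Percent values come from Thermo SelectScreen profiling of NU5455, combining activity and binding assays. CSF1R was run in Z'LYTE format at Km app ATP, and CAMK1 in Adapta format with ATP listed at 10.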

T1 sequence (Q13131 whole entry): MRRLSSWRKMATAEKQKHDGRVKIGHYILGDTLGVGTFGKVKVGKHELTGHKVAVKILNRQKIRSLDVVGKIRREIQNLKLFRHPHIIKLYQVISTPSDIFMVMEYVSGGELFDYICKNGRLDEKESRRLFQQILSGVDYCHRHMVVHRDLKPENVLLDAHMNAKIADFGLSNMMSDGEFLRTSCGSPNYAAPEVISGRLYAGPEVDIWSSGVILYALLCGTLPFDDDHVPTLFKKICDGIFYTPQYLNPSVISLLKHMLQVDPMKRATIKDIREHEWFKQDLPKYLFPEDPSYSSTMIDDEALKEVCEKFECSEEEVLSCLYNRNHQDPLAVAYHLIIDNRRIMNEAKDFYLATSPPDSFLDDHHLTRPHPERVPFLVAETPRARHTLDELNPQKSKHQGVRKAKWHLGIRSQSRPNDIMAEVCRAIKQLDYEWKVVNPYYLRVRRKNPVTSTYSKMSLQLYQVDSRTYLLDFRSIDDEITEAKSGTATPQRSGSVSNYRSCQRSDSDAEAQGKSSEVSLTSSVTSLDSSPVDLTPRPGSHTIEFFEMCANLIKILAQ
T1 sequence (O43741 whole entry partner): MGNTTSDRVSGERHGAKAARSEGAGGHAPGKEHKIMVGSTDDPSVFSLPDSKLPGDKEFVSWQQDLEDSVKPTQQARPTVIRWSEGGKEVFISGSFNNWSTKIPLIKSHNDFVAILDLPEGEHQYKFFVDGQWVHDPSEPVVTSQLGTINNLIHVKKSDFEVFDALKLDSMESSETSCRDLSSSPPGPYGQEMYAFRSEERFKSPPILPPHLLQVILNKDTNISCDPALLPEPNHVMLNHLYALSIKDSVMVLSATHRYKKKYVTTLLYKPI
T1 sequence (P54619 whole entry partner): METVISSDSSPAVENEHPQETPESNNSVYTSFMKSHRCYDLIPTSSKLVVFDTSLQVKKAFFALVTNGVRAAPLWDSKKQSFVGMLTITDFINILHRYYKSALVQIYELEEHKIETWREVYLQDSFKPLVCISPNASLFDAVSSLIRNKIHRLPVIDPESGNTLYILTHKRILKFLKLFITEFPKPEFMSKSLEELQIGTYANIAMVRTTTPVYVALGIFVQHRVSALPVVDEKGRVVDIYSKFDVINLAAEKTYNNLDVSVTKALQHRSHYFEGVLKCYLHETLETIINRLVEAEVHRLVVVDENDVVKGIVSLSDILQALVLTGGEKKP

CN(C(=O)CN1CCOCC1)c1ccc2sc3c(-c4cccc5c(=O)cc(N6CC7CCC(C6)O7)oc45)cccc3c2c1 [NU5455]
inhibition at 1 µM: 0.9%
